Experiments:
K562 = test: Antiproliferative activity against human K562 cells; format: functional, cell-based
[1] = Antiproliferative activity against BCR-ABL1 transfected mouse BA/F3 cells; format: functional, cell-based; conditions: BaF3
[2] = Antiproliferative activity against PDGFRbeta transfected mouse BA/F3 cells; format: functional, cell-based; conditions: BaF3
[3] = Antiproliferative activity against human GIST882 cells; format: functional, cell-based
[4] = Antiproliferative activity against mouse M-NFS-60 cells; format: functional, cell-based
[5] = Antiproliferative activity mouse BA/F3 cells in presence of interleukin 3; format: functional, cell-based; conditions: BaF3
Homo sapiens [6] = organism: Homo sapiens; test: Toxicity in chronic CML patient assessed as cytogenetic response; format: organism-based; conditions: in vivo
Homo sapiens [7] = organism: Homo sapiens; test: Toxicity in chronic CML patient assessed as maximum tolerated dose; format: organism-based; conditions: in vivo

Compound | IC50 (K562) | IC50 [1] | IC50 [2] | IC50 [3] | IC50 [4] | IC50 [5] | Activity (Homo sapiens [6]) | MTD (Homo sapiens [7])
Cc1ccc(NC(=O)c2ccc(CN3CCN(C)CC3)cc2)cc1Nc1nccc(-c2cccnc2)n1 [IMATINIB] | 244 nM | 678 nM | 39 nM | 108 nM | 358 nM | 9460 nM | Non-toxic | 400 mg
Cc1cn(-c2cc(NC(=O)c3ccc(C)c(Nc4nccc(-c5cccnc5)n4)c3)cc(C(F)(F)F)c2)cn1 [NILOTINIB] | 21 nM | 25 nM | 62 nM | 151 nM | 838 nM | > 10000 nM | – | –

Reference: ChEMBL document CHEMBL1250538 (Bioorg Med Chem, 2010)
